Structures are written as SMILES.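 Assay format: 96-well plates, 48-hour exposure. At the GI50, growth is halved. At the TGI there is no net growth.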 A value given as a limit tells only on which side of the number the result lay.

What all share (test): growth of human tumour cells (NCI), 48 h
The subject of assay [1] is CCRF-CEM leukemia.
In assay [2] the test system is LOX IMVI melanoma.
The subject of assay [3] is OVCAR-4 ovarian.
Assay [4] relates to OVCAR-8 ovarian.
In assay [5] the test system is RPMI-8226 leukemia.
In assay [6] the test system is SF-268 CNS.
Assay [7] relates to SK-MEL-28 melanoma.
Assay [8] concerns SW-620 colon.
Assay [9] concerns UACC-62 melanoma.

With `CC(=O)Nc1ccc(C2[C@H]3C(=O)N(c4ccc(Cc5ccc(N6C(=O)[C@@H]7ON(c8ccccc8)C(c8ccc(NC(C)=O)cc8)[C@@H]7C6=O)cc5)cc4)C(=O)[C@H]3ON2c2ccccc2)cc1` (stereo partly specified), the TGI in assay [1], in [2], in [3], in assay [4], in assay [5] and in assay [6] was above 100 µM in each case. Further, the TGI in assay [7], in assay [8] and in assay [9] was above 100 µM each time.
`COC(=O)C1=C(O)C(O)=C(C(=O)OC)C1`: the TGI in [1], in assay [2], in [3], in assay [4], in assay [5] and in assay [6] was above 100 µM in each case. The TGI in assay [7], in assay [8] and in assay [9] was above 100 µM throughout.
As for `CC1NOC(=O)C1N=Nc1ccccc1Cl` (stereo unspecified), the TGI is above 100 µM in assay [1]; above 100 µM in [2]; above 100 µM in [3]; above 100 µM in assay [4]; 54.7 µM in assay [5]; above 100 µM in assay [6]. Besides, the TGI in assay [7], in assay [8] and in assay [9] was above 100 µM in each case.
In the case of `O=S1(=O)C[C@@H](O)[C@H](O)CS1`, the TGI in [2], in assay [3], in assay [4], in assay [5], in assay [6] and in assay [7] was above 100 µM each time. The TGI in assay [8] and in assay [9] was above 100 µM each time.
For the compound `ON=C1CCC(c2ccccc2)CC1` (stereo unspecified), the TGI in assay [1], in assay [2], in [3], in assay [4], in [6] and in assay [7] was above 100 µM throughout. Also, the TGI in assay [8] and in assay [9] was above 100 µM each time.
As to `CCOC(=O)c1ccc(N2C(=O)/C(=C\OC)c3ccccc3C2=O)cc1`, the TGI in assay [3], in assay [4], in assay [5], in [6], in assay [7] and in assay [8] was above 100 µM in each case. In addition, the TGI in assay [9] is above 100 µM.
With `CC(C(=O)Oc1ccc2ccccc2c1-c1c(O)ccc2ccccc12)c1ccccc1` (stereo unspecified), the TGI was 64.4 µM in assay [1]; 23.5 µM in assay [3]; 50.2 µM in assay [4]; 57.6 µM in assay [5]; 29.2 µM in assay [7]; 31.8 µM in assay [8]. Besides, the TGI in [9] was 27 µM.
For `O=C([CH-]C(=O)c1ccccc1)c1ccccc1.O=C([CH-]C(=O)c1ccccc1)c1ccccc1.[Nd+3].[OH-].[OH3+]`, the GI50 in assay [3] was 16.4 µM; in assay [4], 4.74 µM; in [5], 6.04 µM; in [6], 6.51 µM; in [7], 11.5 µM; in assay [8], 6.89 µM. Further, the GI50 in [9] was 4.76 µM. In addition, the TGI was above 100 µM in [3]; 38.4 µM in [4]; 34.9 µM in [6]; 44.8 µM in assay [7]; 39.8 µM in assay [8]; 22.2 µM in assay [9].
As for `O=C(c1ccccc1)c1c(C(=O)c2ccccc2)c(-c2ccccc2)c2c(-c3ccccc3)sc(-c3ccccc3)c2c1-c1ccccc1`, the TGI in assay [1], in assay [2], in assay [3], in assay [4], in assay [5] and in [6] was above 100 µM in each case. In addition, the TGI in assay [7], in [8] and in [9] was above 100 µM in each case.
With `Cc1c2cc[nH]c(=O)c2cc2c(=O)c3cnccc3[nH]c12`, the TGI in [1], in [2], in [3], in [4], in assay [5] and in assay [6] was above 100 µM each time. The TGI in assay [7], in assay [8] and in assay [9] was above 100 µM throughout.
Take `CCOC(=O)C(C)c1cc(C2(C)OCCO2)c(C)o1` (stereo unspecified): the TGI in assay [1], in assay [2], in assay [3], in assay [4], in [5] and in assay [6] was above 100 µM each time. For the same compound, the TGI in assay [8] and in assay [9] was above 100 µM each time.
In the case of `CN(c1ccccc1)C(c1ccccc1)C(O)c1ccccc1` (stereo unspecified), the TGI turned out to be 63.3 µM in [1]; 31.7 µM in [2]; 34.5 µM in assay [3]; 36 µM in assay [4]; 49.3 µM in assay [5]; 42.1 µM in assay [6]. The values for the TGI in [7], in assay [8] and in [9] were 41.7 µM, 33.2 µM and 38.1 µM, respectively.
In the case of `O=c1cc2ccccc2nn1-c1ccccc1Cl`, the TGI in assay [1], in [2], in assay [3], in assay [4], in assay [5] and in assay [6] was above 100 µM each time. In addition, the TGI in assay [7], in [8] and in assay [9] was above 100 µM throughout.
`O=C1C(=O)N(c2ccc(Cl)c(Cl)c2)C(=O)C(=O)C1c1nc2ccccc2o1`: the TGI in assay [2] was above 100 µM; in [3], above 100 µM; in [4] it was above 100 µM; in assay [5], 66.5 µM; in assay [6], above 100 µM; in assay [7], above 100 µM. For the same compound, the TGI in assay [8] and in assay [9] was above 100 µM each time.
As to `Cc1cc(C)nc(Nc2nc3ccc([N+](=O)[O-])cc3[nH]2)n1`, the TGI in assay [1], in [2], in [3], in assay [4], in assay [5] and in assay [6] was above 100 µM throughout. The TGI in assay [7], in assay [8] and in assay [9] was above 100 µM each time.

For the origin of these results see PubChem BioAssay (NCI).
